Reference: PubChem BioAssay AID2060889 (Molecular Pharmacology Branch, DTP, NCI, 2025)

Tested on: LG0567-F671-PDC complex spheroids viability
Assay: Anticancer human tumor LG0567-F671-PDC patient-derived lung adenocarcinoma cell line growth inhibition [RAS]
Conditions: for IC50: curve of first compound; for viability, T/C: stronger effect = lower value
Description: RAS pathway inhibitors in Combinations in Complex Spheroids
A high-throughput screen of multi-cell type tumor spheroids was designed to identify active combinations of RAS pathway inhibitors and targeted small molecules. Complex spheroids include a stromal component modeled by human endothelial cells (HUVEC) and fibroblasts modeled by human mesenchymal stem cells (MSCs). The concentration ranges selected for each drug and investigational agent were based upon clinically achievable concentrations if the clinical Cmax of the agent was known.
Compounds. The drugs and investigational agents: abemaciclib (NSC768073), cobimetinib (NSC768068), divarasib (GDC6063, NSC841802), docetaxel (NSC628503), GDC-1971 (RLY-1971, NSC841576), gemcitabine (NSC613327), inavolisib (NSC800729), ipatasertib (NSC767898), KB-0742 (NSC834161), MRTX-1133 (NSC836407), osimertinib (NSC779217), RMC-4630 (NSC839698), RMC-6236 (NSC851965), RMC-6291 (NSC852671), Ro-3306 (NSC812927), sapanisertib (NSC764658), SN-38 (NSC673596), staurosporine (NSC755774), SY5609 (NSC837396), and tovorafenib (DAY101, NSC766906), were obtained from the National Cancer Institute (NCI) Developmental Therapeutics Program Chemical Repository. The FDA-approved anticancer drug set is available from the NCI Developmental Therapeutics Program. […] The stock solutions were prepared in dimethyl sulfoxide (DMSO, Sigma-Aldrich, St. Louis, MO, cat. D2650) at 800-fold the tested concentration and stored at -70 degrees C prior to their use. All drugs and investigational agents were tested over a range starting from a high concentration at or near the clinical Cmax and decreasing in half-log increments. If the clinical Cmax for an agent had not been determined, the highest concentration tested was 10 microM.
Cell Culture. All cells were maintained in an incubator at 37 degrees C and 5% CO2 with 95% humidity. The PDC lines were cultured according to standard operating procedures established by the NCI PDMR. All PDCs were thawed and cultured in Matrigel-coated flasks prepared with a working solution of 1X Ham's F-12 nutrient mix, without supplementation (Invitrogen, Waltham, MA, cat. 11765054), 100 U/mL penicillin-streptomycin (Invitrogen, cat. 15140122), and 2.5% Matrigel (Corning Inc., Corning, NY, cat. 354248) for the first three passages. The 362531-283-R-J2-PDC and 782815-120-R-J1-PDC lines were cultured in 6C/Colon 1B media, which includes advanced DMEM/F-12 (Thermo Fisher Scientific, cat. 12634028), 10 mM HEPES (Thermo Fisher Scientific, cat. 15630080), 1X GlutaMAX supplement (Thermo Fisher Scientific, cat. 35050061), 0.1 mg/mL primocin (InvivoGen, San Diego, CA, cat. ant-pm-2), 10% defined fetal bovine serum, heat inactivated (HyClone Laboratories Inc., Logan, UT, cat. SH30070.03HI), 50% L-WRN conditioned media (ATCC, cat. CRL-3276), 1.25 mM N-Acetyl-L-cysteine (Sigma-Aldrich, cat. A9165), 10 mM nicotinamide (Sigma-Aldrich, cat. N0636), 1X B-27 supplement (Thermo Fisher Scientific, cat. 17504044), 1X N-2 supplement (Thermo Fisher Scientific, cat. 17502048), 50 ng/mL human EGF (Thermo Fisher Scientific, cat. PHG0311), and 10 microM Y-27632 dihydrochloride (Tocris Bioscience, cat. 1254). The K12877-001-R-J1-PDC line was cultured in 6I media, which includes all 6C/Colon 1B media plus 10 ng/mL human FGF-10 (PeproTech, cat. 100-26), 1 ng/mL human FGF-2 (PeproTech, cat. 100-18B), 1 µM prostaglandin E2 (Tocris Bioscience, cat. 2296), […] hydrocortisone (Sigma-Aldrich, cat. H4001), and […] bovine insulin (Sigma-Aldrich, cat. I6634). The K86415-001-R-J1-PDC line was cultured in 6D media, which includes all 6C/Colon 1B media components minus the L-WRN conditioned media. The 485176-168-R4-J1-PDC was cultured in PANC media, which includes all 6C/Colon 1B media plus 100 ng/mL human FGF-10 (PeproTech, cat. 100-26), 500 nM SB-431542 (Selleckchem, cat. S1067), and 10 nM gastrin (Tocris Bioscience, cat. 3006). […]

[1] = second compound 0.0316 µM, first compound 0.0316 µM
[2] = second compound 0.0316 µM, first compound 0.1 µM
[3] = second compound 0.0316 µM, first compound 0.316 µM
[4] = second compound 0.0316 µM, first compound 1 µM
[5] = second compound 0.1 µM, first compound 0.0316 µM
[6] = second compound 0.1 µM, first compound 0.1 µM
[7] = second compound 0.1 µM, first compound 0.316 µM
[8] = second compound 0.1 µM, first compound 1 µM
[9] = second compound 0.316 µM, first compound 0.0316 µM
[10] = second compound 0.316 µM, first compound 0.1 µM
[11] = second compound 0.316 µM, first compound 0.316 µM
[12] = second compound 0.316 µM, first compound 1 µM
[13] = second compound 1 µM, first compound 0.0316 µM
[14] = second compound 1 µM, first compound 0.1 µM
[15] = second compound 1 µM, first compound 0.316 µM
[16] = second compound 1 µM, first compound 1 µM
[17] = second compound 3.16 µM, first compound 0.0316 µM
[18] = second compound 3.16 µM, first compound 0.1 µM
[19] = second compound 3.16 µM, first compound 0.316 µM
[20] = second compound 3.16 µM, first compound 1 µM
[21] = second compound 10 µM, first compound 0.0316 µM
[22] = second compound 10 µM, first compound 0.1 µM
[23] = second compound 10 µM, first compound 0.316 µM
[24] = second compound 10 µM, first compound 1 µM
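Note: spheroids exposed to compound for seven days before readout.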
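Throughout, for IC50: luminescence signal used as a proxy for viable cells.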

Question: For `CCN1CCN(Cc2ccc(Nc3ncc(F)c(-c4cc(F)c5nc(C)n(C(C)C)c5c4)n3)nc2)CC1` + C#Cc1c(F)ccc2cc(O)cc(-c3ncc4c(N5CC6CCC(C5)N6)nc(OCC56CCCN5CC(F)C6)nc4c3F)c12, which IC50 (second compound 0.0316 µM) is on record?
Answer: > 1000 nM

Question: And the IC50 (second compound 0.1 µM)?
Answer: > 1000 nM

Question: What about the IC50 (second compound 0.316 µM) of the same molecule?
Answer: 13.1 nM

Question: And the IC50 (second compound 1 µM)?
Answer: < 3.16 nM

Question: And the IC50 (second compound 3.16 µM)?
Answer: < 3.16 nM

Question: What about the IC50 (second compound 10 µM) of the same molecule?
Answer: < 3.16 nM

Question: And the viability, T/C (second compound 0.0316 µM, first compound 0.00316 µM)?
Answer: 83.8%

Question: What about the viability, T/C (second compound 0.0316 µM, first compound 0.01 µM) of the same molecule?
Answer: 77.1%

Question: And the viability, T/C [1]?
Answer: 72.8%

Question: What about the viability, T/C [2] of the same molecule?
Answer: 71.8%

Question: What about the viability, T/C [3] of the same molecule?
Answer: 61.1%

Question: What about the viability, T/C [4] of the same molecule?
Answer: 50.3%

Question: What about the viability, T/C (second compound 0.1 µM, first compound 0.00316 µM) of the same molecule?
Answer: 75.9%

Question: And the viability, T/C (second compound 0.1 µM, first compound 0.01 µM)?
Answer: 75%

Question: What about the viability, T/C [5] of the same molecule?
Answer: 62.2%

Question: What about the viability, T/C [6] of the same molecule?
Answer: 59.1%

Question: What about the viability, T/C [7] of the same molecule?
Answer: 57.4%

Question: What about the viability, T/C [8] of the same molecule?
Answer: 50.7%

Question: And the viability, T/C (second compound 0.316 µM, first compound 0.00316 µM)?
Answer: 54.4%

Question: What about the viability, T/C (second compound 0.316 µM, first compound 0.01 µM) of the same molecule?
Answer: 52.6%

Question: And the viability, T/C [9]?
Answer: 46.8%

Question: What about the viability, T/C [10] of the same molecule?
Answer: 44.4%

Question: And the viability, T/C [11]?
Answer: 36%

Question: What about the viability, T/C [12] of the same molecule?
Answer: 39.1%

Question: And the viability, T/C (second compound 1 µM, first compound 0.00316 µM)?
Answer: 37.8%

Question: And the viability, T/C (second compound 1 µM, first compound 0.01 µM)?
Answer: 34.5%

Question: And the viability, T/C [13]?
Answer: 30.9%

Question: And the viability, T/C [14]?
Answer: 27.1%

Question: And the viability, T/C [15]?
Answer: 28.4%

Question: What about the viability, T/C [16] of the same molecule?
Answer: 27.3%

Question: What about the viability, T/C (second compound 3.16 µM, first compound 0.00316 µM) of the same molecule?
Answer: 20.7%

Question: And the viability, T/C (second compound 3.16 µM, first compound 0.01 µM)?
Answer: 18.2%

Question: What about the viability, T/C [17] of the same molecule?
Answer: 20%

Question: And the viability, T/C [18]?
Answer: 17%

Question: What about the viability, T/C [19] of the same molecule?
Answer: 19.7%

Question: What about the viability, T/C [20] of the same molecule?
Answer: 18.2%

Question: What about the viability, T/C (second compound 10 µM, first compound 0.00316 µM) of the same molecule?
Answer: 11.4%

Question: And the viability, T/C (second compound 10 µM, first compound 0.01 µM)?
Answer: 10.8%

Question: And the viability, T/C [21]?
Answer: 13.1%

Question: And the viability, T/C [22]?
Answer: 10.7%

Question: And the viability, T/C [23]?
Answer: 13.4%

Question: And the viability, T/C [24]?
Answer: 16.4%

Question: What does the source list for `C[C@@H](NC(=O)c1ncnc(N)c1Cl)c1ncc(C(=O)Nc2cc(C(F)(F)F)c(Cl)cn2)s1` + C#Cc1c(F)ccc2cc(O)cc(-c3ncc4c(N5CC6CCC(C5)N6)nc(OCC56CCCN5CC(F)C6)nc4c3F)c12?
Answer: IC50 (second compound 0.0316 µM): > 10000 nM; IC50 (second compound 0.1 µM): > 10000 nM; IC50 (second compound 0.316 µM): 7540 nM; IC50 (second compound 1 µM): < 31.6 nM; IC50 (second compound 3.16 µM): < 31.6 nM; IC50 (second compound 10 µM): < 31.6 nM; viability, T/C [1]: 99.1%; viability, T/C [2]: 100%; viability, T/C [3]: 125%; viability, T/C [4]: 103%; viability, T/C (second compound 0.0316 µM, first compound 3.16 µM): 94.9%; viability, T/C (second compound 0.0316 µM, first compound 10 µM): 56.1%; viability, T/C [5]: 81.2%; viability, T/C [6]: 105%; viability, T/C [7]: 88.8%; viability, T/C [8]: 92.8%; viability, T/C (second compound 0.1 µM, first compound 3.16 µM): 82%; viability, T/C (second compound 0.1 µM, first compound 10 µM): 57%; viability, T/C [9]: 73.5%; viability, T/C [10]: 80.9%; viability, T/C [11]: 74.2%; viability, T/C [12]: 67.7%; viability, T/C (second compound 0.316 µM, first compound 3.16 µM): 67%; viability, T/C (second compound 0.316 µM, first compound 10 µM): 44.7%; viability, T/C [13]: 40.5%; viability, T/C [14]: 43.7%; viability, T/C [15]: 52.5%; viability, T/C [16]: 42.5%; viability, T/C (second compound 1 µM, first compound 3.16 µM): 51.8%; viability, T/C (second compound 1 µM, first compound 10 µM): 34%; viability, T/C [17]: 26.1%; viability, T/C [18]: 28.6%; viability, T/C [19]: 29.2%; viability, T/C [20]: 25.6%; viability, T/C (second compound 3.16 µM, first compound 3.16 µM): 26.6%; viability, T/C (second compound 3.16 µM, first compound 10 µM): 23.2%; viability, T/C [21]: 14.9%; viability, T/C [22]: 17.1%; viability, T/C [23]: 16.5%; viability, T/C [24]: 19.4%; viability, T/C (second compound 10 µM, first compound 3.16 µM): 21.2%; viability, T/C (second compound 10 µM, first compound 10 µM): 17.9%
